How the values were obtained:
[1] = target: T1, EGFR (d746-750) (Homo sapiens, UniProt P00533, DEL746-750); assay: Biochemical EGFR inhibition assay (Caliper mobility shift), EGFR (d746-750); conditions: biochemical Caliper mobility shift assay, EGFR Exon 19-del enzyme; read-out: Enz EGFR Exon 19-del IC50
T1 construct: purchased SignalChem E10-122JG
Procedure, shortened: (§1)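 Recombinant mutant enzyme, 2.5 µM fluorescent peptide, ATP at 1.0 mM or Km, 1.0% DMSO, 25 °C. Stopped with EDTA once 10–20% of peptide was phosphorylated; apparent IC50 derived from electrophoretic product/substrate separation.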

[2] = target: intracellular phosphorylation of EGFR (Tyr1068) in PC-9 cells (Homo sapiens, UniProt P00533, DEL746-750); assay: PC-9 pEGFR AlphaLISA assay; format: cell-based; conditions: 4 hours incubation, read-out: Phos EGFR PC9 IC50
Procedure, shortened: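 PC-9 cells (EGFR del746-750) in phenol-free DMEM/10% FBS, adhered overnight, then exposed to 10-point 4-fold compound dilutions for 4 h at 37 °C. Lysates assayed for pEGFR Tyr1068 by AlphaLISA SureFire Ultra; IC50 from percent pEGFR inhibition vs log concentration.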

[3] = target: T2, EGFR L858R (Homo sapiens, UniProt P00533, L858R); assay: Biochemical EGFR inhibition assay (Caliper mobility shift), EGFR L858R; conditions: biochemical Caliper mobility shift assay, EGFR L858R enzyme; read-out: Enz EGFR L858R IC50
T2 construct: purchased SignalChem E10-122BG
Procedure, shortened: as §1

[4] = system: EGFR M+ NSCLC patients; conditions: first line (1L), NSCLC harboring del19 and L858R mutations; cited from earlier work

T2 sequence (P00533 25-1210 L858R): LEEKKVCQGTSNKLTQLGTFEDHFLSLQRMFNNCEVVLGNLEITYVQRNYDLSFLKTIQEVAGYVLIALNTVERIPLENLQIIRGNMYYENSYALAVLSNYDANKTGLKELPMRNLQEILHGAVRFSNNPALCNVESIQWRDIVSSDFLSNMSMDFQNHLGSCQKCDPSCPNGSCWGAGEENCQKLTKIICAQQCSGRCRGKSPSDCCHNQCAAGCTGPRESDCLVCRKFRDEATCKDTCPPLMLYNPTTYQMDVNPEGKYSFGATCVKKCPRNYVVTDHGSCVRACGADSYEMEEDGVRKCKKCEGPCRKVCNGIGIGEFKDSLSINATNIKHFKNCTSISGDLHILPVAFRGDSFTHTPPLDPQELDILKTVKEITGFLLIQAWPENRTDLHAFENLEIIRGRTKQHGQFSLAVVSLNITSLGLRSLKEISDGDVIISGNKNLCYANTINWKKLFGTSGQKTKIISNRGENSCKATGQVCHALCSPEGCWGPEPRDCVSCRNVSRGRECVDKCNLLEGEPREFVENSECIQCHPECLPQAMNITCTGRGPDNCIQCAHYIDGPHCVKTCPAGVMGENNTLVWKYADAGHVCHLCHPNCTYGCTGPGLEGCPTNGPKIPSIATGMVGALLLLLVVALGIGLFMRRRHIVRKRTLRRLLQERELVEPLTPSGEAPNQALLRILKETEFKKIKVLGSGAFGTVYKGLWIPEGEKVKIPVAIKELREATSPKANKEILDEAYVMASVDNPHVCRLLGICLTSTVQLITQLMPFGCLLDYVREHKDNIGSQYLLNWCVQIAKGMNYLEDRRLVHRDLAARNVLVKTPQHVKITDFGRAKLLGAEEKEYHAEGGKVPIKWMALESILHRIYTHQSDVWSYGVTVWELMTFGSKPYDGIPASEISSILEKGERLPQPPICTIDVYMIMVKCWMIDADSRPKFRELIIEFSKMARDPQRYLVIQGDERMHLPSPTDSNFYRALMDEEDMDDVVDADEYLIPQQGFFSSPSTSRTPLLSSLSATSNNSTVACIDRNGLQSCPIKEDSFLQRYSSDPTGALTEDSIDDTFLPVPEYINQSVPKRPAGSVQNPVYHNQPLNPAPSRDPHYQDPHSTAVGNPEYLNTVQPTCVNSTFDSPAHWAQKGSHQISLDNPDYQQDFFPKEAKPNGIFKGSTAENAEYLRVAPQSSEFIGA
T1 sequence (P00533 with tags, fused parts or gaps DEL746-750 limits assumed): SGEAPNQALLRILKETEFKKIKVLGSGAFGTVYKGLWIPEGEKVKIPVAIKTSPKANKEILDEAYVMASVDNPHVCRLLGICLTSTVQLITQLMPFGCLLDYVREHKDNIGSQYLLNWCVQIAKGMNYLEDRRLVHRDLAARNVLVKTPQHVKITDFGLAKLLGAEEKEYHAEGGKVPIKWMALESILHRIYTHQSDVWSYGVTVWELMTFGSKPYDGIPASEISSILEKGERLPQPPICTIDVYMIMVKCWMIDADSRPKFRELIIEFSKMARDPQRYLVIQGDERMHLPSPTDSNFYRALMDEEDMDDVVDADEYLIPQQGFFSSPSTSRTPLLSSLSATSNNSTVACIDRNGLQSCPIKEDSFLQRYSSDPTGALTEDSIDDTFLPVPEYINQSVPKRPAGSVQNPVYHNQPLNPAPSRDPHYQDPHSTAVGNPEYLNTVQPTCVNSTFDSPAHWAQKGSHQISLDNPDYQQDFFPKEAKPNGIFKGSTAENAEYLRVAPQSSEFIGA
Sequence of intracellular phosphorylation of EGFR (Tyr1068) in PC-9 cells (P00533 with tags, fused parts or gaps DEL746-750): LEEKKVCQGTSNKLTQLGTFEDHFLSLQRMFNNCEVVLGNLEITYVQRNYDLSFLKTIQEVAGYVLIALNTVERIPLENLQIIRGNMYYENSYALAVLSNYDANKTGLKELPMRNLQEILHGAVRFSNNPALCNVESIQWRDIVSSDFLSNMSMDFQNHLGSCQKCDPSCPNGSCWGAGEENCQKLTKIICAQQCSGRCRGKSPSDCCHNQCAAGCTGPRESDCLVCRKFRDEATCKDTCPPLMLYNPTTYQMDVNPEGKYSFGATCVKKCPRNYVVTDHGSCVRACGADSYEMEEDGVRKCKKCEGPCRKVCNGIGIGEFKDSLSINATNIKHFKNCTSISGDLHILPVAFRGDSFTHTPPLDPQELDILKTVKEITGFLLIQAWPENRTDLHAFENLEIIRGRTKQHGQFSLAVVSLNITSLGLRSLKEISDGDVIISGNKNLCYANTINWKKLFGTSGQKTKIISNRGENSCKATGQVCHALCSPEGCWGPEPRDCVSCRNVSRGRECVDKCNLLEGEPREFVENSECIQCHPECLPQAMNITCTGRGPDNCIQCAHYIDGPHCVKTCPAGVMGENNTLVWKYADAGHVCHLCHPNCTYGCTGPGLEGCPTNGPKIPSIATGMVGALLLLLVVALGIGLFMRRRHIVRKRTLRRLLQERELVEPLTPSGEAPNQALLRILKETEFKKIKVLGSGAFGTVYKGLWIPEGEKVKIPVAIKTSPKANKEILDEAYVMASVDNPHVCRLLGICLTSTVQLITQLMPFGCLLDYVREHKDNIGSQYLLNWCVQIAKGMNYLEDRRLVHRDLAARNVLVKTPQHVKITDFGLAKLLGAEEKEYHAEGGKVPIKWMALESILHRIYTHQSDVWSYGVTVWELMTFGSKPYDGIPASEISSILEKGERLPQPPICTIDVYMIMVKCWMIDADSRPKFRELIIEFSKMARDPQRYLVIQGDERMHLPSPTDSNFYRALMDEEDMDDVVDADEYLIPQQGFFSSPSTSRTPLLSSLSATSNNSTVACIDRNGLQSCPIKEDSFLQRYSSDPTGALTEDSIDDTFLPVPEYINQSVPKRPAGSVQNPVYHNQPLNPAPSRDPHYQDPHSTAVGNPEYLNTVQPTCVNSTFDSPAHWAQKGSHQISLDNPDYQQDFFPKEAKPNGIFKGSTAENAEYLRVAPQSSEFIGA

Row | SMILES | IC50 [1] | IC50 [2] | IC50 [3] | progression-free survival (PFS) [4]
1 | CNC[C@@H](C)Oc1cc(-c2cnn(C)c2)cc2ncnc(Nc3ccc4ncsc4c3)c12 [Example 396, (R)-N-(7-(1-methyl-1H-pyrazol-4-yl)-5-((1-(methylamino)propan-2-yl)oxy)quinazolin-4-yl)benzo[d]thiazol-6-amine] | ≤ 0.01 µM | ≤ 0.01 µM | 0.0101 to 0.05 µM | –
2 | C=CC(=O)Nc1cc(Nc2nccc(-c3cn(C)c4ccccc34)n2)c(OC)cc1N(C)CCN(C)C [Osimertinib] | – | – | – | 18.9 mo
3 | CN1CC[C@@](C)(COc2cc(-c3cnn(C)c3)cc3ncnc(Nc4ccc5ncsc5c4)c23)C1=O (single isomer, unassigned) [Example 55] | ≤ 0.01 µM | 0.0101 to 0.05 µM | ≤ 0.01 µM | –
4 | COC[C@H](CN(C)C)Oc1cc(-c2cnn(C)c2)cc2ncnc(Nc3ccc4ncsc4c3)c12 [Example 141, (S)-N-(5-((1-(dimethylamino)-3-methoxypropan-2-yl)oxy)-7-(1-methyl-1H-pyrazol-4-yl)quinazolin-4-yl)benzo[d]thiazol-6-amine] | ≤ 0.01 µM | 0.0101 to 0.05 µM | 0.0101 to 0.05 µM | –

Source: patent US20260207602A1, “EGFR INHIBITORS” (Blueprint Medicines Corporation, priority 2022, published 2026)
